From PubChem BioAssay (NCI)
Several values for one entry are separate records, joined by “and”; a condition that tells them apart may be missing. Equal entries are not always repeated.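 Compound exposure: 48 hours, 5 concentrations, 96-well plates. GI50: concentration for 50% inhibition of growth. TGI marks complete inhibition of growth.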

Tests used:
Assay in all cases: inhibition of tumour cell growth, NCI panel, 48 h
[1] = system: DLD-1 colon
[2] = system: OVCAR-5 ovarian
[3] = system: OVCAR-8 ovarian
[4] = system: NCI-H460 lung
[5] = system: LXFL 529 NSCLC
[6] = system: SN12C renal
[7] = system: HS 578T breast
[8] = system: T-47D breast
[9] = system: DU-145 prostate

Molecule	TGI [1] [µM]	TGI [2] [µM]	TGI [3]	TGI [4]	TGI [5] [µM]	TGI [6] [µM]	TGI [7]	TGI [8]	TGI [9] [µM]	GI50 [2]	GI50 [7]	GI50 [8]	GI50 [3]	GI50 [6]	GI50 [9]	GI50 [4]
CCc1cc(Cc2ccc(C)c(NC(=O)C(=O)C3C(=O)NC(=O)NC3=O)c2CC)cc(C)c1NC(=O)C(=O)C1C(=O)NC(=O)NC1=O	> 100	> 100	> 100 µM	> 100 µM	> 100											
CCOC(=O)CC(NC(=O)c1ccc(N=NN(C)C)cc1)C(=O)OCC (stereo not given)	> 100	> 100	> 100 µM	> 100 µM	> 100	> 100										
O=S(=O)(O)SCCNCCCCCC1CCCCC1		23.8	33.1 µM	9.16 µM		11.3	36.2 µM	35.7 µM	12.1							
O=C(/C=C/c1ccc([N+](=O)[O-])cc1)c1cccc(Nc2nc(Nc3ccccc3)nc(Nc3ccccc3)n2)c1		> 100	> 100 µM	38 µM		> 100	5.97 µM	> 100 µM	> 100	51 µM	1.35 µM	9.75 µM	14 µM	26.8 µM	28.2 µM	9.63 µM
COc1ccc(C2=Nc3c/c(=C\c4c(O)[nH]c5cc(Cl)ccc45)ccc3=N2)cc1		60	22.8 µM	26.1 µM		30	43.1 µM	29.8 µM	21.6	22 µM	10.6 µM	10.7 µM	7.68 µM	13.9 µM	6.6 µM	8.01 µM
CCCCCCCCCCCCCCCCOCC(O)CO (stereo not given)		52.2	35.4 µM	37.7 µM		36.3	39.7 µM	46.2 µM	34							
Cc1c(Cl)cccc1NC(=O)c1sc2nc3c(cc2c1N)CCCC3		> 100	> 100 µM	> 100 µM		> 100	> 100 µM	> 100 µM	> 100	> 100 µM	1.05 µM	0.402 µM	3.42 µM	5.88 µM	1.38 µM	0.473 µM
CCCCCCCCCCCCCCCCCC(=O)NCC(COP(=O)(O)O)OCC (stereo not given)	> 100		> 100 µM		> 100	46.4										
O=C(/C=C/c1ccccc1)CCC1C(=O)NC(=S)NC1=O		> 100	> 100 µM	> 100 µM		> 100	> 100 µM	> 100 µM	> 100							
O=C(CCCCCCCCC(=O)N/N=C\c1cc(Cl)ccc1O)N/N=C\c1cc(Cl)ccc1O		> 100	28.9 µM	19.6 µM		> 100	> 100 µM	> 100 µM	> 100	7.99 µM	16.4 µM	1.48 µM	0.231 µM	0.427 µM	0.495 µM	0.162 µM
COc1cc(/C=N/NC(=O)c2ccccc2Nc2cccc(C(F)(F)F)c2)cc(OC)c1OC		33.1	11.6 µM	6.33 µM		15.4	6.6 µM	13.5 µM	8.39	11.8 µM	0.971 µM	3.33 µM	4.81 µM	5.94 µM	2.61 µM	2.3 µM
Nc1ccn(C2OC(C(OC3OC(CO)C(O)C(N)C3O)C(O)C(O)C(O)C(O)CO)C(N)C(O)C2O)c(=O)n1 (stereo not given)		> 100	> 100 µM	> 100 µM		> 100	7.27 µM	> 100 µM	> 100							
Oc1ccc(Cl)cc1/C=N\NC(=S)N/N=C/c1cc(Cl)ccc1O		> 100	17.7 µM	13.3 µM		64.7	> 100 µM	73.4 µM	70	5.04 µM	8.37 µM	2.73 µM	1.92 µM	3.12 µM	3.67 µM	2.58 µM
COc1cc2c(cc1OCCCOc1ccc(-c3nc4ccc(N5CCN(C)CC5)cc4[nH]3)cc1)N=C[C@@H]1CCCN1C2=O			< 0.01 µM	< 0.0505 µM		< 0.01	< 0.01 µM	15 µM	6.98	< 0.01 µM	< 0.01 µM	< 0.01 µM	< 0.01 µM	< 0.01 µM	< 0.01 µM	< 0.01 µM
COc1cc(Cn2c(-c3ccccc3)cc3c2-c2oncc2CC3)cc(OC)c1		> 100	> 100 µM	5.32 µM		> 100	50.1 µM	> 100 µM	1.25	0.551 µM	0.264 µM	> 100 µM	0.592 µM	0.738 µM	0.309 µM	0.333 µM
Cn1cc(NC(=O)Nc2cc(C(=O)Nc3cc(C(=O)Nc4cc(S(=O)(=O)O)c5cc(S(=O)(=O)O)cc(S(=O)(=O)O)c5c4)n(C)c3)n(C)c2)cc1C(=O)Nc1cc(C(=O)Nc2cc(S(=O)(=O)O)c3cc(S(=O)(=O)O)cc(S(=O)(=O)O)c3c2)n(C)c1		> 100	> 100 µM	> 100 µM		> 100	> 100 µM	> 100 µM	> 100							
CC(C)(C)Sc1nnc(SC(C)(C)C)c2c(=O)[nH]nc(SC(C)(C)C)c12	22.8	16.9	22.1 µM	19.5 µM	23.1	21.9										
CCCCCCCCCCSC(=N)N		23.5	19.2 µM	4.68 µM		18.4	12.5 µM	4.55 µM	19.3	9.84 µM	2.93 µM	2.04 µM	4.17 µM	5.09 µM	6.63 µM	2.02 µM
Cn1cc(-c2nc(N[C@@H]3CCCC[C@@H]3N)c(F)c3c2C(=O)NC3)cn1		> 100	66.1 µM and > 75.3 µM	63.2 µM and > 100 µM		> 100	71 µM and 57.2 µM	77.3 µM and > 96.6 µM	> 100	7.14 µM and 8.43 µM	5.95 µM and 6.14 µM	24.8 µM and 33.7 µM	10.8 µM and 12.4 µM	3.61 µM and 3.8 µM	11.5 µM and 14.4 µM	5.87 µM and 6.08 µM

Molecule	TGI [1] [µM]	TGI [2] [µM]	TGI [3]	TGI [4]	TGI [5] [µM]	TGI [6] [µM]	TGI [7]	TGI [8]	TGI [9] [µM]	GI50 [2]	GI50 [7]	GI50 [8]	GI50 [3]	GI50 [6]	GI50 [9]	GI50 [4]
O=C(/C=C/c1ccco1)c1ccc(Nc2nc(Nc3ccc(F)cc3)nc(Nc3ccc(F)cc3)n2)cc1		> 100	46.1 µM	59 µM		> 100	65 µM	59.8 µM	> 100	47.6 µM	22.8 µM	11.4 µM	17.4 µM	54.8 µM	28.8 µM	13.1 µM
O=CCCCC(Sc1ccccc1)Sc1ccccc1	31.6		35.8 µM		25.6	56.7										
Cc1ccc(S(=O)(=O)NC(CO)C(=O)O)cc1 (stereo not given)		> 100	> 100 µM	> 100 µM		> 100	> 100 µM	> 100 µM	> 100							
Cc1c(Cl)c(C)c(Cc2c(C)c(Cl)c(C)c(Cl)c2O)c(O)c1Cl		14.4	21.6 µM	10.2 µM		11.8	9.55 µM	8.76 µM	16.6	3.67 µM	2.71 µM	2.11 µM	3.73 µM	2.46 µM	4.83 µM	2.43 µM
O=C(C=C=Nc1ccccc1)C(=O)N=C=Cc1ccccc1		11.8	14.4 µM	44.1 µM		19.4	7.31 µM	3.94 µM	6.82	2.88 µM	2.26 µM	1.62 µM	3.84 µM	4.71 µM	2.24 µM	14.1 µM
O=C(/C=C/c1cccc2ccccc12)Nc1ncc(Cc2ccccc2)s1		> 100	> 100 µM	5.19 µM		> 100	5.34 µM	> 100 µM	> 100	1.98 µM	0.703 µM	0.894 µM	1.55 µM	1.16 µM	1.61 µM	0.861 µM
H-QIYKKYRTWYRKAWKVLGKV-NH2		22.5	> 100 µM	12.4 µM		15	8.51 µM	5.2 µM	11.8	8.79 µM	2.57 µM	2.06 µM	3.8 µM	3.56 µM	3.54 µM	3.24 µM
COc1cc(-c2cc(=O)c3c(O)c(OC)c(OC)c(OC)c3o2)cc(OC)c1OC		> 100	> 100 µM	> 100 µM		> 100	> 20.7 µM	> 74.3 µM	> 100							
O=C(c1ccc2ccccc2c1)c1c(C(F)(F)F)n([O-])c2ccc(F)cc2[n+]1=O		3.18	1.21 µM	3.68 µM		2.74	4.77 µM	4.05 µM	3.12	1.78 µM	1.98 µM	1.56 µM	0.324 µM	1.29 µM	1.68 µM	1.83 µM
Cc1cc(Nc2nc(-c3ccncc3)nc3ccccc23)n[nH]1		> 100	> 100 µM	> 100 µM		> 100	7.47 µM	> 100 µM	> 100	> 100 µM	1.36 µM	5 µM	11 µM	4.55 µM	24.2 µM	6.18 µM
O=C1/C(=C\c2ccccc2)C2OCC=C3CN4CCC56c7ccccc7N1C5C2C3CC46 (stereo not given)		> 100	> 100 µM	> 100 µM		> 100	> 100 µM	> 100 µM	> 100	> 100 µM	62.5 µM	64.8 µM	85.8 µM	26.2 µM	> 100 µM	6.4 µM
CC(N1CCOCC1)C(O)(c1ccccc1)c1ccccn1 (stereo not given)		> 100	> 100 µM	> 100 µM		> 100	> 100 µM	> 100 µM	> 100							
NC(=O)c1ccc(N(C(N)=O)c2c(F)cccc2F)nc1-c1ccc(F)cc1F		> 100	> 100 µM	> 100 µM		> 100	> 100 µM	> 100 µM	> 100	> 100 µM	> 100 µM	> 100 µM	> 100 µM	> 100 µM	> 100 µM	> 100 µM
C/C(CC(=O)Nc1cccc([N+](=O)[O-])c1)=N\NC(=O)CC#N	> 100	> 100	> 100 µM		> 100											
Nc1c(C(=O)Nc2cccc3ccccc23)sc2nc3c(cc12)C(=O)CCC3		> 100	32.1 µM			> 100	> 100 µM	> 100 µM	8.71	0.604 µM	0.226 µM	0.759 µM	0.506 µM	0.539 µM	0.337 µM	0.165 µM
C=CC(C)(O)CC/C=C(\CO)C(=O)OC1C(C)OC(O[C@](C)(C=C)CC/C=C(\CO)C(=O)O[C@H]2C[C@@]3(C(=O)OC4OC(CO)C(O)C(O)C4OC4OC(C)C(OC5OC(CO)C(O)C5O)C(OC5OC(CO)C(O)C(O)C5O)C4O)C(CC2(C)C)C2=CCC4[C@@]5(C)CC[C@H](OC6OC(COC7OC(C)C(O)C(O)C7OC7OCC(O)C(O)C7O)C(O)C(O)C6NC(C)=O)C(C)(C)C5CC[C@@]4(C)[C@]2(C)C[C@H]3O)C(O)C1O (stereo not given in full)		5.95	6.45 µM	9.79 µM		0.343	7.16 µM	0.739 µM	0.512	1.38 µM	0.989 µM	0.155 µM	0.372 µM	0.0798 µM	0.131 µM	3.72 µM
O=Cc1ccc(N2CCN(c3ccc(C=O)cc3)CC2)cc1		8.09	> 100 µM	> 100 µM		> 100	> 100 µM	32.6 µM	> 100	2.6 µM	> 100 µM	3.35 µM	> 100 µM	> 100 µM	> 100 µM	77.2 µM
Cc1cc2nc3c4ccc(Br)cc4n(CCN(C)C)c3nc2cc1C		5.88	11.8 µM	3.95 µM		6.18	6.38 µM	6.6 µM	9.96	1.99 µM	2.06 µM	2.05 µM	1.24 µM	1.1 µM	2.96 µM	1.26 µM
